In patent publication US7326689B2, “Pseudomycins useful against plant diseases” (Eli Lilly and Company, priority 2000, dated 2008):
“And” between values parts separate entries of the source, which are not always exact repeats. Identical values can stand only once.

Tests used:
Experiment in all cases: Antifungal growth assay in potato dextrose broth, 24-well
Type in all cases: cell-based
Septoria passerinii = conditions: 3x assays
Description: (§1) Fungi to be tested were propagated on potato dextrose agar (PDA) plates at room temperature. Stock solutions of pseudomycins and depsipeptide were suspended in dimethylsulfoxide (DMSO) (Sigma) at 5 mg/ml and stored at −20C. Serial dilutions of compounds were done the day of the experiment. All serial dilutions were made in DMSO. […] These are noted in the raw data section.
(§2) Assays were performed in 24-well cell culture clusters (Costar 3524), with 990 ul potato dextrose broth (PDB, Difco) and 10 ul of the compound to be tested in each well. Initial concentrations tested were 50-1.56 ug/ml (final concentration of pseudomycin). Actual concentrations of pseudomycins tested were 50, 25, 12.5, 6.25, 3.12 and 1.56 ug/ml. Each well was inoculated with the appropriate fungus. Unless noted, the fungal inoculum consisted of an ˜4 mm^2 piece of PDA with fungal mycelium. The exceptions were as follows. Ustilago maydis: this fungus grows much like a yeast on PDA, and cells were scraped from the PDA stock plate, resuspended in PDB and 10 ul inoculum added to each well. Monilinia sp.: this fungal mycelium grows as a very loose sheet on top of PDA and would not adhere to agar blocks. Fungal mycelium was ground with a metal rod in 500 ul PDB and 10 ul inoculum was added to each well. Mycosphaeella fijiensis, Septoria passerinii, Septoria triticii: these fungi all grow very slowly and the results were difficult to score if a small piece of agar with fungal mycelium on it was used as an inoculum. For these fungi, the mycelium was ground with a metal rod in 500 ul PDB and 10 ul inoculum was added to each well.
(§3) Wells were scored for fungal growth at two days and five days. Some slow growing fungi were scored at later days for growth because assessment was not possible at two or five days. Growth was scored by comparison to a control consisting of fungus inoculated into 990 ul potato dextrose broth and 10 ul of DMSO (Dimethylsulfoxide). An additional control consisting of fungal inoculum in PDB only was performed to ensure that the DMSO was not inhibitory to fungal growth.
(§4) For assays that were repeated, new stock solutions were made from a second shipment of pseudomycins. Note that pseudomycin B′ and depsipeptide stock solutions were remade from first shipment materials because these were not included in the second shipment. […] Actual concentrations of pseudomycins tested were 2, 1, 0.5, 0.25, 0.125 and 0.0625 ug/ml. A-PO4 and A-FB=pseudomycin A phosphate salt and free base respectively.
(§5) Table 2: Two day results—concentration indicated is lowest level of compound (ug /ml) that results is no growth. NI, no inhibition; p (partial), at least 50% inhibited; -, not determined. If number of assays was greater than one, number of assays performed on the fungus is noted in parentheses. For several slow-growing fungi, days elapsed before observation (if different than two) are noted.
(§6) Table 3: Five day results—concentration indicated is lowest level of compound (ug /ml) that results in no growth. NI, no inhibition; p (partial), at least 50% inhibited; -, not performed on the fungus is noted in parentheses. For several slow-growing fungi, days elapsed before observation (if different than five) are noted.

Monilinia sp. = conditions: 2x assays
Description: as §1, §2, §3, §4, §5, §6

Rhizoctonia solani = conditions: 2x assays
Description: as §1, §2, §3, §4, §5, §6

Geotrichim candidum = conditions: 3x assays
Description: as §1, §2, §3, §4, §5, §6

[1] = test system: Mycosphaeella fijiensis (Sigatoka); conditions: 3x assays
Description: as §1, §2, §3, §4, §5, §6

Ustilago maydis = conditions: 3x assays
Description: as §1, §2, §3, §4, §5, §6

Drechslera portulacae = conditions: 3x assays
Description: as §1, §2, §3, §4, §5, §6

Penicillium roqueforti = conditions: 3x assays
Description: as §1, §2, §3, §4, §5, §6

[2] = test system: Mycosphaeella fijiensis (8088/88); conditions: 3x assays
Description: as §1, §2, §3, §4, §5, §6

Septoria tritici = conditions: 3x assays
Description: as §1, §2, §3, §4, §5, §6

Fusarium culmorum = test system: Fusarium culmorum; design: key: NI, no inhibition; p (partial), at least 50% inhibited
Description: as §1, §2, §3, §4, §5, §6

[3] = test system: Fusarium oxysporum cubense; design: key: NI, no inhibition; p (partial), at least 50% inhibited
Description: as §1, §2, §3, §4, §5, §6

Phoma chrysamthecola = test system: Phoma chrysamthecola; design: key: NI, no inhibition; p (partial), at least 50% inhibited; conditions: five day results
Description: as §1, §2, §3, §4, §5, §6

Alternaria helianthi = test system: Alternaria helianthi; design: key: NI, no inhibition; p (partial), at least 50% inhibited; conditions: 2x assays
Description: as §1, §2, §3, §4, §5, §6

[4] = test system: Drechslera tritici-repentis; design: key: NI, no inhibition; p (partial), at least 50% inhibited
Description: as §1, §2, §3, §4, §5, §6

Verticillium dahliae = test system: Verticillium dahliae; design: key: NI, no inhibition; p (partial), at least 50% inhibited; conditions: 2x assays
Description: as §1, §2, §3, §4, §5, §6

Phytophthora cactorum = test system: Phytophthora cactorum; design: key: NI, no inhibition; p (partial), at least 50% inhibited
Description: as §1, §2, §3, §4, §5, §6

Drechslera teres = test system: Drechslera teres; design: key: NI, no inhibition; p (partial), at least 50% inhibited
Description: as §1, §2, §3, §4, §5, §6

[5] = test system: Pestalotiopsis microspora NE-32; design: key: NI, no inhibition; p (partial), at least 50% inhibited
Description: as §1, §2, §3, §4, §5, §6

Bipolaris sorokiniana = test system: Bipolaris sorokiniana; design: key: NI, no inhibition; p (partial), at least 50% inhibited
Description: as §1, §2, §3, §4, §5, §6

Stagonospora nodorum = test system: Stagonospora nodorum; design: key: NI, no inhibition; p (partial), at least 50% inhibited
Description: as §1, §2, §3, §4, §5, §6

[6] = Table 2 (two day results), observed at 7 day
[7] = Table 3 (five day results), observed at 21 days
[8] = Table 3 (five day results), observed at 9 day

Pseudomycin B′
lowest level of compound that results in no growth (Septoria passerinii; five day results): 0.5 µg/mL
lowest level of compound that results in no growth (Septoria passerinii; two day results): 0.5 µg/mL
lowest level of compound that results in no growth (Monilinia sp.; five day results): 25 µg/mL
lowest level of compound that results in no growth (Monilinia sp.; two day results): 25 µg/mL
lowest level of compound that results in no growth (Rhizoctonia solani; five day results): 6.25 µg/mL
lowest level of compound that results in no growth (Rhizoctonia solani; two day results): 6.25 µg/mL
lowest level of compound that results in no growth (Geotrichim candidum; five day results): 25 µg/mL
lowest level of compound that results in no growth (Geotrichim candidum; two day results): 25 µg/mL
lowest level of compound that results in no growth [1, 6]: 0.5 µg/mL
lowest level of compound that results in no growth [1, 7]: 1 µg/mL
lowest level of compound that results in no growth (Ustilago maydis; five day results): 3.12 µg/mL
lowest level of compound that results in no growth (Ustilago maydis; two day results): 1.56 µg/mL
lowest level of compound that results in no growth (Drechslera portulacae; [8]): 0.25 µg/mL
lowest level of compound that results in no growth (Drechslera portulacae; two day results): 0.12 µg/mL
lowest level of compound that results in no growth (Penicillium roqueforti; five day results): 1.56 µg/mL
lowest level of compound that results in no growth (Penicillium roqueforti; two day results): 1.56 µg/mL
lowest level of compound that results in no growth [2, 6]: 0.5 µg/mL
lowest level of compound that results in no growth [2, 7]: 1 µg/mL
lowest level of compound that results in no growth (Septoria tritici; five day results): 0.5 µg/mL
lowest level of compound that results in no growth (Septoria tritici; two day results): 0.5 µg/mL
lowest level of compound that results in no growth (Fusarium culmorum; five day results): NI
lowest level of compound that results in no growth (Fusarium culmorum; two day results): NI
lowest level of compound that results in no growth ([3]; five day results): NI
lowest level of compound that results in no growth ([3]; two day results): NI
lowest level of compound that results in no growth (Phoma chrysamthecola): p at 50
lowest level of compound that results in no growth (Alternaria helianthi; five day results): 25 µg/mL
lowest level of compound that results in no growth (Alternaria helianthi; two day results): 25 µg/mL
lowest level of compound that results in no growth ([4]; five day results): p at 50
lowest level of compound that results in no growth ([4]; two day results, 2x assays): 50 µg/mL
lowest level of compound that results in no growth (Verticillium dahliae; five day results): NI
lowest level of compound that results in no growth (Verticillium dahliae; two day results): NI
lowest level of compound that results in no growth (Phytophthora cactorum; five day results): NI
lowest level of compound that results in no growth (Phytophthora cactorum; two day results): NI
lowest level of compound that results in no growth (Drechslera teres; five day results): NI
lowest level of compound that results in no growth (Drechslera teres; two day results): NI
lowest level of compound that results in no growth ([5]; five day results): NI
lowest level of compound that results in no growth ([5]; two day results): NI
lowest level of compound that results in no growth (Bipolaris sorokiniana; five day results): NI
lowest level of compound that results in no growth (Bipolaris sorokiniana; two day results): NI
lowest level of compound that results in no growth (Stagonospora nodorum; five day results): NI
lowest level of compound that results in no growth (Stagonospora nodorum; two day results): NI

Pseudomycin C′
lowest level of compound that results in no growth (Septoria passerinii; five day results): 0.0625 µg/mL and 0.06 µg/mL
lowest level of compound that results in no growth (Septoria passerinii; two day results): 0.06 µg/mL
lowest level of compound that results in no growth (Monilinia sp.; five day results): 6.25 µg/mL
lowest level of compound that results in no growth (Monilinia sp.; two day results): 3.12 µg/mL
lowest level of compound that results in no growth (Rhizoctonia solani; five day results): p at 50
lowest level of compound that results in no growth (Rhizoctonia solani; two day results): p at 50
lowest level of compound that results in no growth (Geotrichim candidum; five day results): 6.25 µg/mL
lowest level of compound that results in no growth (Geotrichim candidum; two day results): 1.56 µg/mL
lowest level of compound that results in no growth [1, 6]: 1.56 µg/mL
lowest level of compound that results in no growth [1, 7]: 1.56 µg/mL
lowest level of compound that results in no growth (Ustilago maydis; five day results): 0.25 µg/mL
lowest level of compound that results in no growth (Ustilago maydis; two day results): 0.25 µg/mL
lowest level of compound that results in no growth (Drechslera portulacae; [8]): 0.5 µg/mL
lowest level of compound that results in no growth (Drechslera portulacae; two day results): 0.05 µg/mL
lowest level of compound that results in no growth (Penicillium roqueforti; five day results): p at 50
lowest level of compound that results in no growth (Penicillium roqueforti; two day results): 1.56 µg/mL
lowest level of compound that results in no growth [2, 6]: 0.125 µg/mL
lowest level of compound that results in no growth [2, 7]: 0.25 µg/mL
lowest level of compound that results in no growth (Septoria tritici; five day results): 0.25 µg/mL
lowest level of compound that results in no growth (Septoria tritici; two day results): 0.125 µg/mL
lowest level of compound that results in no growth (Fusarium culmorum; five day results): NI
lowest level of compound that results in no growth (Fusarium culmorum; two day results): NI
lowest level of compound that results in no growth ([3]; five day results): NI
lowest level of compound that results in no growth ([3]; two day results): NI
lowest level of compound that results in no growth (Phoma chrysamthecola): NI
lowest level of compound that results in no growth (Alternaria helianthi; five day results): NI
lowest level of compound that results in no growth (Alternaria helianthi; two day results): p at 50
lowest level of compound that results in no growth ([4]; five day results): NI
lowest level of compound that results in no growth ([4]; two day results, 2x assays): 50 µg/mL
lowest level of compound that results in no growth (Verticillium dahliae; five day results): p at 50
lowest level of compound that results in no growth (Verticillium dahliae; two day results): p at 50
lowest level of compound that results in no growth (Phytophthora cactorum; five day results): NI
lowest level of compound that results in no growth (Phytophthora cactorum; two day results): NI
lowest level of compound that results in no growth (Drechslera teres; five day results): NI
lowest level of compound that results in no growth (Drechslera teres; two day results): NI
lowest level of compound that results in no growth ([5]; five day results): NI
lowest level of compound that results in no growth ([5]; two day results): NI
lowest level of compound that results in no growth (Bipolaris sorokiniana; five day results): NI
lowest level of compound that results in no growth (Bipolaris sorokiniana; two day results): NI
lowest level of compound that results in no growth (Stagonospora nodorum; five day results): NI
lowest level of compound that results in no growth (Stagonospora nodorum; two day results): NI
